# Test results from US6355799B1, “Substituted benzene compounds, process for their preparation, and herbicidal and defoliant compositions containing them” (ISK Americas Incorporated, priority 1997, dated 2002).
# Key:
# Assay type in all cases: in vivo
# [1] = test system: upland rice (Oryza sp., var. Tebonnet, RICE); test: Post-emerge test, crop safety; details: phytotoxicity rating 0-100 (0 no damage, 100 complete death), 14 days after application
# In short: (§1)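 Rating: 0–100 visual injury, 14 DAA. Application: acetone, 187 l/ha, 15–1000 g ai/ha, flat-fan track sprayer with nozzle 40–45 cm above soil or canopy. Post-emerge runs used 0.25% v/v surfactant on 2–3 leaf plants.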
# [2] = test system: field corn (Zea mays L., var. Dekalb 535, CORN); test: Post-emerge test, crop safety; details: phytotoxicity rating 0-100 (0 no damage, 100 complete death), 14 days after application
# In short: as §1
# [3] = test system: upland rice (Oryza sp., var. Tebonnet, RICE); test: Pre-emerge test, crop safety; details: pre-emerge, rated 14 days after application, 0 = no damage, 100 = complete death
# In short: (§2)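 Compounds in acetone were track-sprayed at 187 l/ha, 15–1000 g ai/ha, onto sandy loam pots. Pre-emerge seeds were sown one day before spraying, with surface watering afterwards. Post-emerge plants were at the 2–3 leaf stage and sprayed with 0.25% v/v non-ionic surfactant. Injury was rated 0–100 at 14 days.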
# [4] = test system: field corn (Zea mays L., var. Dekalb 535, CORN); test: Pre-emerge test, crop safety; details: pre-emerge, rated 14 days after application, 0 = no damage, 100 = complete death
# In short: as §2
# [5] = test system: green foxtail (Setaria viridis, SETVI); test: Post-emerge test, greenhouse herbicide activity screening; details: phytotoxicity rating 0-100 (0 no damage, 100 complete death), 14 days after application
# In short: (§3)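 Sandy loam pots; pre-emerge: sown 1 d pre-spray, surface-watered after, then bottom-watered. Post-emerge: sown 8–21 d before, 2–3 leaf stage, + 0.25% v/v NIS, bottom-watered. Acetone, 187 l/ha track spray, 15–1000 g ai/ha. 0–100 injury score, day 14.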
# [6] = test system: sicklepod (Cassia obtusifolia, CASOB); test: as above; details: phytotoxicity rating 0-100 (0 no damage, 100 complete death), 14 days after application
# In short: as §3
# [7] = test system: barnyardgrass (Echinochloa crus-galli, ECHCG); test: as above; details: phytotoxicity rating 0-100 (0 no damage, 100 complete death), 14 days after application
# In short: as §3
# [8] = test system: redroot pigweed (Amaranthus retroflexus, AMARE); test: as above; details: phytotoxicity rating 0-100 (0 no damage, 100 complete death), 14 days after application
# In short: as §3
# [9] = test system: johnsongrass (Sorghum halepense, SORHA); test: as above; details: phytotoxicity rating 0-100 (0 no damage, 100 complete death), 14 days after application
# In short: as §3
# [10] = test system: lambsquarters (Chenopodium album, CHEAL); test: as above; details: phytotoxicity rating 0-100 (0 no damage, 100 complete death), 14 days after application
# In short: as §3
# [11] = test system: velvetleaf (Abutilon theophrasti, ABUTH); test: as above; details: phytotoxicity rating 0-100 (0 no damage, 100 complete death), 14 days after application
# In short: as §3
# [12] = test system: large crabgrass (Digitaria sanguinalis, DIGSA); test: as above; details: phytotoxicity rating 0-100 (0 no damage, 100 complete death), 14 days after application
# In short: as §3
# [13] = test system: ivyleaf morningglory (Ipomoea hederacea, IPOHE); test: as above; details: phytotoxicity rating 0-100 (0 no damage, 100 complete death), 14 days after application
# In short: as §3
# [14] = test system: green foxtail (Setaria viridis, SETVI); test: Pre-emerge test, greenhouse herbicide activity screening; details: pre-emerge, rated 14 days after application, 0 = no damage, 100 = complete death
# In short: (§4)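 Compounds in acetone were track-sprayed at 15–1000 g ai/ha: pre-emergence onto soil sown the previous day, then top-watered to incorporate and later bottom-watered; post-emergence onto 2–3 leaf plants with 0.25% v/v surfactant, bottom-watered only. Ratings on a 0–100 phytotoxicity scale were taken at day 14.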
# [15] = test system: sicklepod (Cassia obtusifolia, CASOB); test: as above; details: pre-emerge, rated 14 days after application, 0 = no damage, 100 = complete death
# In short: as §4
# [16] = test system: barnyardgrass (Echinochloa crus-galli, ECHCG); test: as above; details: pre-emerge, rated 14 days after application, 0 = no damage, 100 = complete death
# In short: as §4
# [17] = test system: johnsongrass (Sorghum halepense, SORHA); test: as above; details: pre-emerge, rated 14 days after application, 0 = no damage, 100 = complete death
# In short: as §4
# [18] = test system: lambsquarters (Chenopodium album, CHEAL); test: as above; details: pre-emerge, rated 14 days after application, 0 = no damage, 100 = complete death
# In short: as §4
# [19] = test system: velvetleaf (Abutilon theophrasti, ABUTH); test: as above; details: pre-emerge, rated 14 days after application, 0 = no damage, 100 = complete death
# In short: as §4
# [20] = test system: large crabgrass (Digitaria sanguinalis, DIGSA); test: as above; details: pre-emerge, rated 14 days after application, 0 = no damage, 100 = complete death
# In short: as §4
# [21] = test system: ivyleaf morningglory (Ipomoea hederacea, IPOHE); test: as above; details: pre-emerge, rated 14 days after application, 0 = no damage, 100 = complete death
# In short: as §4
# [22] = test system: redroot pigweed (Amaranthus retroflexus, AMARE); test: as above; details: pre-emerge, rated 14 days after application, 0 = no damage, 100 = complete death
# In short: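 Compounds in acetone were track-sprayed at 15-1000 g ai/ha (187 l/ha) on sandy loam pots: pre-emerge one day after seeding, post-emerge at 2-3 leaf stage with 0.25% v/v non-ionic surfactant. Phytotoxicity was rated 14 days later on a 0 (no damage) to 100 (complete death) scale.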
smiles,measurement,setting,value
C=CC(=O)N(C(=O)C=C)c1c(OC)c(Cl)cc(F)c1-n1c(=O)cc(C(F)(F)F)n(C)c1=O [2-4],Post-emerge Herbicidal Activity RICE (crop damage),[1]; 63 g ai/ha,0
same,Post-emerge Herbicidal Activity RICE (crop damage),[1]; 250 g ai/ha,0
same,Post-emerge Herbicidal Activity CORN (crop damage),[2]; 63 g ai/ha,0
same,Post-emerge Herbicidal Activity CORN (crop damage),[2]; 250 g ai/ha,0
same,"Pre-emerge crop damage RICE (phytotoxicity rating, scale 0-100)",[3]; 63 g ai/ha,0
same,"Pre-emerge crop damage RICE (phytotoxicity rating, scale 0-100)",[3]; 250 g ai/ha,10
same,"Pre-emerge crop damage CORN (phytotoxicity rating, scale 0-100)",[4]; 63 g ai/ha,0
same,"Pre-emerge crop damage CORN (phytotoxicity rating, scale 0-100)",[4]; 250 g ai/ha,20
same,Post-emerge Herbicidal Activity SETVI,[5]; 63 g ai/ha,0
same,Post-emerge Herbicidal Activity SETVI,[5]; 250 g ai/ha,0
same,Post-emerge Herbicidal Activity CASOB,[6]; 63 g ai/ha,0
same,Post-emerge Herbicidal Activity CASOB,[6]; 250 g ai/ha,0
same,Post-emerge Herbicidal Activity ECHCG,[7]; 63 g ai/ha,0
same,Post-emerge Herbicidal Activity ECHCG,[7]; 250 g ai/ha,0
same,Post-emerge Herbicidal Activity AMARE,[8]; 63 g ai/ha,0
same,Post-emerge Herbicidal Activity AMARE,[8]; 250 g ai/ha,70
same,Post-emerge Herbicidal Activity SORHA,[9]; 63 g ai/ha,10
same,Post-emerge Herbicidal Activity SORHA,[9]; 250 g ai/ha,10
same,Post-emerge Herbicidal Activity CHEAL,[10]; 63 g ai/ha,50
same,Post-emerge Herbicidal Activity CHEAL,[10]; 250 g ai/ha,50
same,Post-emerge Herbicidal Activity ABUTH,[11]; 63 g ai/ha,0
same,Post-emerge Herbicidal Activity ABUTH,[11]; 250 g ai/ha,50
same,Post-emerge Herbicidal Activity DIGSA,[12]; 63 g ai/ha,0
same,Post-emerge Herbicidal Activity DIGSA,[12]; 250 g ai/ha,0
same,Post-emerge Herbicidal Activity IPOHE,[13]; 63 g ai/ha,0
same,Post-emerge Herbicidal Activity IPOHE,[13]; 250 g ai/ha,20
same,"Pre-emerge Herbicidal Activity SETVI (phytotoxicity rating, scale 0-100)",[14]; 63 g ai/ha,0
same,"Pre-emerge Herbicidal Activity SETVI (phytotoxicity rating, scale 0-100)",[14]; 250 g ai/ha,80
same,"Pre-emerge Herbicidal Activity CASOB (phytotoxicity rating, scale 0-100)",[15]; 63 g ai/ha,0
same,"Pre-emerge Herbicidal Activity CASOB (phytotoxicity rating, scale 0-100)",[15]; 250 g ai/ha,0
same,"Pre-emerge Herbicidal Activity ECHCG (phytotoxicity rating, scale 0-100)",[16]; 63 g ai/ha,0
same,"Pre-emerge Herbicidal Activity ECHCG (phytotoxicity rating, scale 0-100)",[16]; 250 g ai/ha,0
same,"Pre-emerge Herbicidal Activity SORHA (phytotoxicity rating, scale 0-100)",[17]; 63 g ai/ha,0
same,"Pre-emerge Herbicidal Activity SORHA (phytotoxicity rating, scale 0-100)",[17]; 250 g ai/ha,0
same,"Pre-emerge Herbicidal Activity CHEAL (phytotoxicity rating, scale 0-100)",[18]; 63 g ai/ha,50
same,"Pre-emerge Herbicidal Activity CHEAL (phytotoxicity rating, scale 0-100)",[18]; 250 g ai/ha,100
same,"Pre-emerge Herbicidal Activity ABUTH (phytotoxicity rating, scale 0-100)",[19]; 63 g ai/ha,30
same,"Pre-emerge Herbicidal Activity ABUTH (phytotoxicity rating, scale 0-100)",[19]; 250 g ai/ha,100
same,"Pre-emerge Herbicidal Activity DIGSA (phytotoxicity rating, scale 0-100)",[20]; 63 g ai/ha,0
same,"Pre-emerge Herbicidal Activity DIGSA (phytotoxicity rating, scale 0-100)",[20]; 250 g ai/ha,50
same,"Pre-emerge Herbicidal Activity IPOHE (phytotoxicity rating, scale 0-100)",[21]; 63 g ai/ha,20
same,"Pre-emerge Herbicidal Activity IPOHE (phytotoxicity rating, scale 0-100)",[21]; 250 g ai/ha,70
same,"Pre-emerge Herbicidal Activity AMARE (phytotoxicity rating, scale 0-100)",[22]; 63 g ai/ha,80
same,"Pre-emerge Herbicidal Activity AMARE (phytotoxicity rating, scale 0-100)",[22]; 250 g ai/ha,95
